Patent publication US11866430B2, “Naphthyridinone compounds useful as T cell activators” (priority 2018, dated 2024)
Read-outs that look alike come from different tables or passages of the source.

Experiments:
[1] = molecular target: human DGKα (Homo sapiens (Human), UniProt P23743); test: biochemical; conditions: detergent/lipid micelle substrate; read-out: DGKα IC50
In short: (§1)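 Enzymes were baculovirus/Sf9 full-length human DGKα or DGKζ with His tag. The substrate was PS/DAG in octyl glucoside micelles, in MOPS pH 7.5 buffer with NaCl, MgCl2, CaCl2 and DTT.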

[2] = molecular target: human DGKζ (Homo sapiens (Human), UniProt Q13574); test: DGKζ assay (detergent/lipid micelle substrate); assay type: biochemical; conditions: detergent/lipid micelle substrate; read-out: DGKζ IC50
In short: as §1

[3] = tested on: Jurkat AP1-luciferase Reporter; test: DGK AP1-Reporter Assay; assay type: cell-based
Experimental: The Jurkat AP1-luciferase Reporter was generated using the Cignal Lenti AP1 Reporter (luc) Kit from SABiosciences (CLS-011L).
The sample size was 30 nl per well; and one destination plate per source plate. The cell suspensions were prepared by transferring 40 mL cells (2×20 mL) to clean 50 mL conical tubes. The cells were concentrated by centrifugation (1200 rpm; 5 mins; ambient temperature). […] The cell plates were incubated for 20 minutes at 37° C., and 5% CO2.
During the incubation, anti-CD3 antibody (αCD3) solutions were prepared by mixing 3 μl αCD3 (1.3 mg/mL) with 10 mL medium [final conc=0.4 μg/mL]. Next, 1.5 μl αCD3 (1.3 mg/mL) was mixed with 0.5 mL medium [final conc=4 μg/mL]. After 20 minutes, 10 μl medium was added to all wells in column 1, wells A to M, and 10 μl αCD3 (4 μg/mL) per well was added in column 1, rows N to P for reference. Then using a multi-channel pipette, 10 μl αCD3 (0.4 μg/mL) per well was added. The αCD3 stimulated +/− compound-treated cells were incubated at 37° C., 5% CO2 for 6 hours.
During this incubation period. Steady-Glo (Promega E2520) reagent was slowly thawed on to ambient temperature. Next, 20 μl Steady-Glo reagent per well was added using a multi-drop Combi-dispenser. Bubbles were removed by centrifugation (2000 rpm, ambient temperature, 10 sees). The cells were incubated at room temperature for 5 minutes. Samples were characterized by measuring the Relative Light Units (RLU) with an using Envision Plate Reader Instrument on a luminescence protocol.

[4] = Homo sapiens, Jurkat, read-out: API-Luciferase Reporter IC50, Table 3

Sequence of human DGKζ (Q13574 other isoform, or with tags, fused parts or gaps): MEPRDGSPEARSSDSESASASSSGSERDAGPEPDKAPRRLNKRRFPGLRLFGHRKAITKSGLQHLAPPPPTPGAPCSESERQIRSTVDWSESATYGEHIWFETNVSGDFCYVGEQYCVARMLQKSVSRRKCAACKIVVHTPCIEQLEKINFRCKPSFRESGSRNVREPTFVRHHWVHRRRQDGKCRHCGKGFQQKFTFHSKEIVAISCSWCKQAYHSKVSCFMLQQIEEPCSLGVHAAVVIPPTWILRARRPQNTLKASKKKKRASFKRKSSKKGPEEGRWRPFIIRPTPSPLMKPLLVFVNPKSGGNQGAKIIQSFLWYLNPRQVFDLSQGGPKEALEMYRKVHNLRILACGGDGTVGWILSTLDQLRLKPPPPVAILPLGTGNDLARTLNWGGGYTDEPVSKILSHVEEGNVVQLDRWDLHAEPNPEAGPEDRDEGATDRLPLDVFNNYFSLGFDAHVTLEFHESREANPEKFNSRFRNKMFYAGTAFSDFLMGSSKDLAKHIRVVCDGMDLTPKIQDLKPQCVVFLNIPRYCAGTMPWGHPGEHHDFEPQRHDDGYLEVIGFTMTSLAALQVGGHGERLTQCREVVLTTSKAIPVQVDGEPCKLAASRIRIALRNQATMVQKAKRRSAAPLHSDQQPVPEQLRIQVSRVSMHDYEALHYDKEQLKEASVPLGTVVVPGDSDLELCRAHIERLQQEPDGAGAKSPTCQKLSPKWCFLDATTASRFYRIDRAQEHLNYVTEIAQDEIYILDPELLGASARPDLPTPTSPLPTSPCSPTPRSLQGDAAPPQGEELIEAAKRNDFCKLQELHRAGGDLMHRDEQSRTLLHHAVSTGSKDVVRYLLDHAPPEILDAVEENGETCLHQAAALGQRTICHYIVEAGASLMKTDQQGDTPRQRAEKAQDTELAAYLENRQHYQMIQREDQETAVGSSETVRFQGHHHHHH
Sequence of human DGKα (P23743 other isoform, or with tags, fused parts or gaps): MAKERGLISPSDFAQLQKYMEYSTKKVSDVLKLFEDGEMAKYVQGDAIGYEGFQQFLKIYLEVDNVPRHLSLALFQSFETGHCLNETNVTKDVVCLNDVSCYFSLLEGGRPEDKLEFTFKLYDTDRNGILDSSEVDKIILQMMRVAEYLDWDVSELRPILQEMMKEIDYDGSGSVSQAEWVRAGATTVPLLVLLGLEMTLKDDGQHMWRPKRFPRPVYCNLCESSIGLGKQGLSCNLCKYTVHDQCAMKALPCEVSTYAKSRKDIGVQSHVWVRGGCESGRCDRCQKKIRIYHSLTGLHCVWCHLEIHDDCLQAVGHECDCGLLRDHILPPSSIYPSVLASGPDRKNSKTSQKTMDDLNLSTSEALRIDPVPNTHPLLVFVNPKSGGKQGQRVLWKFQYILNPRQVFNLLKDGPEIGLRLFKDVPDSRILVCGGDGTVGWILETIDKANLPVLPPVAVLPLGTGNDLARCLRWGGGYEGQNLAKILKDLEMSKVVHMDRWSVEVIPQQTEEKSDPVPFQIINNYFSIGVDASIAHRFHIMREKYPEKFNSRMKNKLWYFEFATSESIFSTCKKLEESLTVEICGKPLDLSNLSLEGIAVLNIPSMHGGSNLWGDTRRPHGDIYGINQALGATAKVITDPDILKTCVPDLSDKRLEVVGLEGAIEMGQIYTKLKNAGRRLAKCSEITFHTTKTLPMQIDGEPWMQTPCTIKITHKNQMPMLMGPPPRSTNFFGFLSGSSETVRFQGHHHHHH

Structure (SMILES) | IC50 [1] [nM] | IC50 [2] [nM] | IC50 [3, 4] [nM] | IC50 ([3]; read-out: API-Luciferase Reporter IC50, Table 3) [nM]
Cn1c(=O)c(C#N)c(N2CCN(Cc3ccccc3N)CC2)c2nc(Br)ccc21 [Example 211, 4-(4-(2-aminobenzyl)piperazin-1-yl)-6-bromo-1-methyl-2-oxo-1,2-dihydro-1,5-naphthyridine-3-carbonitrile] | 250 | > 240000 | 520 | –
Cn1c(=O)c(C#N)c(N2CCN(Cc3ccccc3NS(C)(=O)=O)CC2)c2nc(Br)ccc21 [Example 212, N-(2-((4-(6-bromo-3-cyano-1-methyl-2-oxo-1,2-dihydro-1,5-naphthyridin-4-yl)piperazin-1-yl)methyl)phenyl)methanesulfonamide] | 2200 | > 240000 | 1140 | –
Cn1c(=O)c(C#N)c(N2CCN(Cc3ccc(C#N)cc3F)CC2)c2nc(Cl)ccc21 [Example 379, 6-chloro-4-{4-[(4-cyano-2-fluorophenyl)methyl]piperazin-1-yl}-1-methyl-2-oxo-1,2-dihydro-1,5-naphthyridine-3-carbonitrile] | 380 | > 240000 | 7840 | –
COCCn1c(=O)c([N+](=O)[O-])c(N2CCN(C(C)c3ccc(F)cc3)CC2)c2nc(C#N)ccc21 (racemic) [Example 148, 8-(4-(1-(4-fluorophenyl)ethyl)piperazin-1-yl)-5-(2-methoxyethyl)-7-nitro-6-oxo-5,6-dihydro-1,5-naphthyridine-2-carbonitrile] | 15000 | 28000 | 870 | –
COCCn1c(=O)c(C#N)c(N2CCN(C(c3ccc(F)cc3)c3ccc(F)cc3)CC2)c2nc(Br)ccc21 [Example 113, 4-(4-(bis(4-fluorophenyl)methyl)piperazin-1-yl)-6-bromo-1-(2-methoxyethyl)-2-oxo-1,2-dihydro-1,5-naphthyridine-3-carbonitrile] | – | – | 580 | –
COc1cc(F)ccc1C(c1ccc(F)cc1)N1CCN(c2c(C#N)c(=O)n(C)c3ccc(Br)nc23)CC1 (racemic) [Example 15, 6-bromo-4-{4-[(4-fluoro-2-methoxyphenyl)(4-fluorophenyl)methyl]piperazin-1-yl}-1-methyl-2-oxo-1,2-dihydro-1,5-naphthyridine-3-carbonitrile] | 550 | 58000 | 1820 | –
C#CCn1c(=O)c([N+](=O)[O-])c(N2CCN(C(c3ccc(F)cc3)c3ccc(F)cc3O)CC2)c2nc(C#N)ccc21 (single isomer, unassigned) [Example 120, 8-(4-((4-fluoro-2-hydroxyphenyl)(4-fluorophenyl)methyl)piperazin-1-yl)-7-nitro-6-oxo-5-(prop-2-yn-1-yl)-5,6-dihydro-1,5-naphthyridine-2-carbonitrile] | 18000 | > 81000 | – | 1300
CC(c1ccc(F)cc1)N1CCN(c2c([N+](=O)[O-])c(=O)n(C)c3ccc(C#N)nc23)CC1 (stereo not shown) [Example 43, 8-(4-(1-(4-fluorophenyl)ethyl)piperazin-1-yl)-5-methyl-7-nitro-6-oxo-5,6-dihydro-1,5-naphthyridine-2-carbonitrile] | 37 | 6300 | 400 | –
C#CCn1c(=O)c([N+](=O)[O-])c(N2CCN(C(CC)c3ccc(F)cc3)CC2)c2nc(C#N)ccc21 (racemic) [Example 139, 8-{4-[1-(4-fluorophenyl)propyl]piperazin-1-yl}-7-nitro-6-oxo-5-(prop-2-yn-1-yl)-5,6-dihydro-1,5-naphthyridine-2-carbonitrile] | 410 | 910 | 130 | –
Cn1c(=O)c(C#N)c(N2CCN(CC(O)c3ccc(F)cc3)CC2)c2nc(Br)ccc21 (racemic) [Example 28, 6-bromo-4-{4-[2-(4-fluorophenyl)-2-hydroxyethyl]piperazin-1-yl}-1-methyl-2-oxo-1,2-dihydro-1,5-naphthyridine-3-carbonitrile] | 1300 | > 81000 | 4450 | –
CC(c1ccc(F)cc1)N1CCN(c2c(C#N)c(=O)n(C)c3ccc(Br)nc23)CC1 (racemic) [Example 22, 6-bromo-4-{4-[1-(4-fluorophenyl)ethyl]piperazin-1-yl}-1-methyl-2-oxo-1,2-dihydro-1,5-naphthyridine-3-carbonitrile] | 70 | > 81000 | 1530 | –
Cn1c(=O)c(C#N)c(N2CCN(Cc3cccc4c3NC(=O)C4)CC2)c2nc(Cl)ccc21 [Example 376, 6-chloro-1-methyl-2-oxo-4-{4-[(2-oxo-2,3-dihydro-1H-indol-7-yl)methyl]piperazin-1-yl}-1,2-dihydro-1,5-naphthyridine-3-carbonitrile] | – | – | 10000 | –
COCCn1c(=O)c(C#N)c(N2CCN(C(c3ccc(F)cc3)c3ccc(F)cc3OC)CC2)c2nc(Br)ccc21 (racemic) [Example 114, 6-bromo-4-(4-((4-fluoro-2-methoxyphenyl)(4-fluorophenyl)methyl)piperazin-1-yl)-1-(2-methoxyethyl)-2-oxo-1,2-dihydro-1,5-naphthyridine-3-carbonitrile] | 120000 | 100000 | 4120 | –
Cn1c(=O)c(C#N)c(N2CCN(Cc3c(O)cccc3Cl)CC2)c2nc(Br)ccc21 [Example 390, 6-bromo-4-{4-[(2-chloro-6-hydroxyphenyl)methyl]piperazin-1-yl}-1-methyl-2-oxo-1,2-dihydro-1,5-naphthyridine-3-carbonitrile] | 870 | > 240000 | 800 | –
Cn1c(=O)c([N+](=O)[O-])c(N2CCN(C(CO)c3ccc(F)cc3)CC2)c2nc(C#N)ccc21 (stereo not shown) [Example 37, 8-{4-[1-(4-fluorophenyl)-2-hydroxyethyl]piperazin-1-yl}-5-methyl-7-nitro-6-oxo-5,6-dihydro-1,5-naphthyridine-2-carbonitrile] | 1800 | 38000 | 2830 | –
CCC(c1ccc(F)cc1)N1CCN(c2c(C#N)c(=O)n(C)c3ccc(Br)nc23)CC1 (racemic) [Example 25, 6-bromo-4-{4-[1-(4-fluorophenyl)propyl]piperazin-1-yl}-1-methyl-2-oxo-1,2-dihydro-1,5-naphthyridine-3-carbonitrile] | 41 | > 81000 | 1150 | –
COc1ccccc1C(c1ccc(F)cc1)N1CCN(c2c(C#N)c(=O)n(C)c3ccc(Br)nc23)CC1 (stereo not shown) [Example 12, 6-bromo-4-{4-[(4-fluorophenyl)(2-methoxyphenyl)methyl]piperazin-1-yl}-1-methyl-2-oxo-1,2-dihydro-1,5-naphthyridine-3-carbonitrile] | 1000 | > 81000 | 580 | –
Cn1c(=O)c(C#N)c(N2CCN(Cc3cccc(C(C)(C)C)c3O)CC2)c2nc(Cl)ccc21 [Example 384, 4-{4-[(3-tert-butyl-2-hydroxyphenyl)methyl]piperazin-1-yl}-6-chloro-1-methyl-2-oxo-1,2-dihydro-1,5-naphthyridine-3-carbonitrile] | – | – | 180 | –
Cn1c(=O)c(C#N)c(N2CCN(Cc3cccc4c3NC(=O)C4)CC2)c2nc(Br)ccc21 [Example 374, 6-bromo-1-methyl-2-oxo-4-{4-[(2-oxo-2,3-dihydro-1H-indol-7-yl)methyl]piperazin-1-yl}-1,2-dihydro-1,5-naphthyridine-3-carbonitrile] | – | – | 7930 | –
